Data from ChEMBL document CHEMBL5226388, “Terpenoids from the Sponge Sarcotragus sp. Collected in the South China Sea” (J Nat Prod, 2023).
pIC50: −log10 of the molar value.

Columns and labels:
K562 = assay: Cytotoxicity against human K562 cells assessed as reduction in cell growth by MTT assay; assay type: functional, cell-based
ASPC1 = assay: Cytotoxicity against human ASPC1 cells assessed as reduction in cell growth by MTT assay; assay type: functional, cell-based
MDA-MB-231 = assay: Cytotoxicity against human MDA-MB-231 cells assessed as reduction in cell growth by MTT assay; assay type: functional, cell-based
H69AR = assay: Cytotoxicity against human NCI-H69AR cells assessed as reduction in cell growth by MTT assay; assay type: functional, cell-based
[1] = Cytotoxicity against human L02 cells assessed as reduction in cell growth by MTT assay; assay type: toxicity, cell-based

| SMILES | pIC50 (K562) | pIC50 (ASPC1) | pIC50 (MDA-MB-231) | pIC50 (H69AR) | pIC50 [1] |
| --- | --- | --- | --- | --- | --- |
| CO[C@H](C[C@]1(C)C2=CC[C@H]3C(C)(C)CCC[C@]3(C)[C@H]2CC[C@@H]1C)C1=CC(=O)O[C@H]1O | 5.10 | 5.33 | 4.80 | 5.25 | 5.34 |
| CC(=O)O[C@H]1OC(=O)C=C1/C=C/[C@]1(C)C2=CC[C@H]3C(C)(C)CCC[C@]3(C)[C@H]2CC[C@@H]1C | 5.54 | – | 4.54 | 4.83 | 5.17 |
| C[C@@H]1CC[C@@H]2C(=CC[C@H]3C(C)(C)CCC[C@@]23C)[C@]1(C)C[C@@H](O)C1=CC(=O)OC1 | 4.90 | < 4.52 | < 4.52 | < 4.52 | 4.94 |
| CC(=O)O[C@@H]1C[C@@H]2[C@@]3(C)CCCC(C)(C)[C@@H]3CC[C@@]2(C)[C@@H]2C[C@@H](O)C3=C([C@H](O)OC3=O)[C@@]12C | 5.14 | 4.75 | < 4.52 | 4.56 | 4.62 |
| C[C@H]1CC[C@H]2C(=CC[C@H]3C(C)(C)CCC[C@]23C)[C@@]1(C)/C=C/C1=CC(=O)OC1O (stereo partly drawn) | 4.93 | 4.65 | < 4.52 | 4.59 | 4.87 |
| CC(=O)O[C@@H]1OC(=O)C=C1/C=C/[C@]1(C)C2=CC[C@H]3C(C)(C)CCC[C@]3(C)[C@H]2CC[C@@H]1C | 5.36 | – | 4.63 | 4.79 | 5.14 |
| CC1=CCC[C@@H](C)[C@@]1(C)CC/C(C)=C/CCC1=CC(=O)OC1 | < 4.52 | < 4.52 | < 4.52 | < 4.52 | < 4.52 |
| COc1cccc2c1C(=O)c1c(O)c3c(c(O)c1C2=O)C[C@@](O)(C(=O)CO)C[C@@H]3O[C@H]1C[C@H](N)[C@H](O)[C@H](C)O1 [DOXORUBICIN] | > 6.00 | > 6.00 | > 6.00 | > 6.00 | > 6.00 |
| C=C(C)CCCC1=CCC[C@H](C)[C@]1(C)CCC1=CC(=O)OC1O (stereo partly drawn) | 4.82 | < 4.52 | < 4.52 | 4.67 | 4.87 |
| CC(C)=CCC[C@@]1(C)CCC=C2[C@@H]1CC[C@H](C)[C@]2(C)CCC1=CC(=O)OC1 | < 4.52 | < 4.52 | < 4.52 | < 4.52 | < 4.52 |
| C[C@@H]1CC[C@@H]2C(=CC[C@@H]3C(C)(C)CCC[C@@]23C)[C@]1(C)C[C@H](O)C1=CC(=O)OC1 | < 4.52 | < 4.52 | < 4.52 | < 4.52 | < 4.52 |
